What was measured:
flies (family Muscidae) [1] = assay: Anti-procreant comparison tests (sexual sterility or oviposition inhibition); type: in vivo; conditions: for inducing sexual sterility or inhibiting oviposition: comparison tests, Examples 6-9; for activity in the method of the invention (ineffective compounds): general statement of the description
Description: (§1) The compound to be tested was administered in a standard fly food containing 6 parts of sugar, 6 parts of powdered non-fat dry milk, and 1 part of powdered egg yolk. Treated food was prepared by mixing an appropriate amount of a solution or suspension of CBCP in acetone with a batch of the food. The acetone was evaporated (4-6 hours) and the dry material was repulverized.
Oviposition inhibition tests: Samples of treated food with a container of water were placed in cages containing 100 newly-emerged adult flies (family Muscidae). After the flies had been exposed to the treated diet for 6-7 days, 1/2 inch of moist standard fly larva-rearing medium (CSMA) in souffle cups was placed in the cages for oviposition. After 4-6 hours, the cup was removed and examined for eggs. If no eggs were laid, the medium was offered again at intervals of 1 or 2 days until it had been offered three times or the flies had oviposited.
(§2) Chemosterilancy tests: If eggs were laid in the above tests, the cups were filled with water and stirred to break up the egg masses. A random sample of 100 eggs from each cup was collected and placed on a small piece of black cloth which was then laid on top of moist larva-rearing medium in a rearing container. Observations were made to determine percentage of egg hatch and pupal development.
These flies were maintained on untreated fly food. After 5 days, cups containing the larval-rearing medium was provided as previously described and a 100-egg sample was collected and place on moist larve-rearing medium. About a week after oviposition, examination was made to determine the percentage of hatched eggs and of pupae developed.
For purpose of comparison the above-described tests were applied to 2-benzyl-4-t-butylphenol and 2-(α-methylbenzyl)-4-t-butylphenol.
For purposes of comparison the above-described tests were applied to 2,6-di-t-butyl-4-(4-methoxybenzyl) phenol and 2,6-di-t-butyl-4-(α-methyl-4-methoxybenzyl)phenol, both compounds being ineffective in inducing sexual sterility or in inhibiting oviposition.
For purposes of comparison the following compounds were tested and found to be ineffective in inducing sexual sterility or in inhibiting oviposition: 2-(4-methoxybenzyl)-3,4-methylenedioxyphenol, (α-methylbenzyl)-3,4-methylenedioxy-6-methoxybenzene, (α,α-dimethylbenzyl)-3,4-methylenedioxy-6-methoxybenzene, (α,α-dimethylbenzyl)-3,4-methylenedioxy-6-ethoxybenzene, (α,α-dimethylbenzyl)-3,4-methylenedioxy-6-n-propoxybenzene, (α,α-dimethylbenzyl)-3,4-methylenedioxy-6-n-butoxybenzene, (α,α-dimethylbenzyl)-3,4-methylenedioxy-6-n-pentoxybenzene, (α-vinylbenzyl)-3,4-methylenedioxy-6-methoxybenzene, (α-vinylbenzyl)-3,4-methylenedioxy-6-ethoxybenzene, (α-vinylbenzyl)-3,4-methylenedioxy-6-n-propoxybenzene.

[2] = system: early fourth-stage larvae of the common malaria mosquito (Anopheles quadrimaculatus); assay: Growth-inhibition tests on mosquito larvae; type: in vivo; conditions: in water; corrected by Abbott's formula
Description: The compound to be tested was added to one liter of water until the final concentration thereof was a growth-inhibiting amount. Fifty early fourth-stage larvae of the common malaria mosquito (Anopheles quadrimaculatus) were placed on this water. Larval food was administered daily. Dead larvae and pupae were removed, counted, and discarded daily. Live pupae were removed, rinsed, and transferred to a cup of distilled water. The cup was placed in an emergence cage, and the emerging adults, if any, were maintained on a sugar-water diet.
The effectiveness of the compound in inhibiting growth was determined by adding the number of dead larvae and pupae and the number of adults that were dead, unable to complete eclosion, and malformed. This sum was corrected by Abbott's formula (to adjust for the number of larvae or pupae which would die naturally) and designated as the GI (growth inhibition). The results are expressed as GI-90, i.e., the concentration of growth inhibitor in ppm that would prevent and/or retard growth in 90% of the treated larvae.

flies (family Muscidae) [3] = assay: Oviposition inhibition tests (treated fly food; Examples 6-9); type: in vivo
Description: The compound to be tested was administered in a standard fly food containing 6 parts of sugar, 6 parts of powdered non-fat dry milk, and 1 part of powdered egg yolk. Treated food was prepared by mixing an appropriate amount of a solution or suspension of CBCP in acetone with a batch of the food. The acetone was evaporated (4-6 hours) and the dry material was repulverized. Oviposition inhibition tests: Samples of treated food with a container of water were placed in cages containing 100 newly-emerged adult flies (family Muscidae). After the flies had been exposed to the treated diet for 6-7 days, 1/2 inch of moist standard fly larva-rearing medium (CSMA) in souffle cups was placed in the cages for oviposition. After 4-6 hours, the cup was removed and examined for eggs. […] The procedure outlined in Example 6 was followed using a Group II compound. The procedure outlined in Example 6 was followed using Group III compounds. The results are summarized below: The procedure outlined in Example 6 was followed substituting a Group IV compound for those of Group I. The table below provides a summary of results.

Solubility in water = type: physicochemical
[4] = system: Salmonella tester strains TA-100, TA-98, TA-1537; assay: Ames' Salmonella/microsome mutagenicity procedure
Description: The mutagenic activity of D, A, B, M, N, and CC were tested by the standard Ames' Salmonella/microsome procedure, which is reported to show better than 90% correlation with development of mammalian cancers (Ames et al., Mutation Research, Vol. 31, p. 347, 1975; McCann et al., Proc. Nat. Acad. Sci., Vol. 72, p. 5135, 1975). Tester strains TA-100, TA-98, TA-1537 and the plate test method were used, employing concentrations of 10, 100, 1000, and 10,000 […]. The metabolic activation mixture (S-9 mix) used the 9000 times g supernatant of Arochlor-1254-induced rat liver homogenate at a level of 100 μl per ml of S-9 mix.

screwworm flies = assay: Anti-procreant tests on screw-worm fly; type: in vivo; conditions: 0.10% in food
Description: These tests were conducted on mass-reared screwworm flies which had been obtained as pupae from the screwworm fly plant at Mission, Texas. The flies were held in cages with water and undiluted corn syrup in a colony room maintained at about 27° C. and 60% relative humidity (RH) with a 12-hour photoperiod beginning at 6 a.m. Adults that emerged were lightly anesthetized with CO2 for ease of manipulation the same day.
The mixtures obtained were fed to the flies in "Dixie" paper cups, 7 cm diameter, and rice hulls were placed on the surface of the food to prevent the flies from getting stuck in the viscous mixture.
Initially, varying concentrations of a chemosterilant were fed to the flies for the first 5 days of life. Thereafter, the chemosterilant was replaced with pure corn syrup. On the 7th day, 3 replicates of 10 flies were stimulated to oviposit and the flies which oviposited were checked for insemination by an examination of the spermathecae for live sperms. The total number of eggs per fly was estimated and the hatchability of these eggs (fertility) was determined 24 hours later (at 37° C.). Observations were made to determine percentage of egg hatch.

flies (family Muscidae) [5] = assay: Chemosterilancy tests (egg hatch and pupal development; Examples 6-9); type: in vivo
Description: as §1, §2
The procedure outlined in Example 6 was followed using a Group II compound.
The procedure outlined in Example 6 was followed using Group III compounds. The results are summarized below:
The procedure outlined in Example 6 was followed substituting a Group IV compound for those of Group I. The table below provides a summary of results.

Compound: 2-(4-methoxybenzyl)-3,4-methylenedioxyphenol [reference compound]
- inducing sexual sterility or inhibiting oviposition (flies (family Muscidae) [1]): ineffective

Compound: CC(c1ccccc1)c1cc(C(C)(C)C)ccc1O (stereo not drawn) [2-(α-methylbenzyl)-4-t-butylphenol, reference compound]
- inducing sexual sterility or inhibiting oviposition (flies (family Muscidae) [1]): ineffective
- activity in the method of the invention (ineffective compounds) (flies (family Muscidae) [1]): ineffective

Compound: CC(C)(C)c1ccc(O)c(Cc2ccccc2)c1 [2-benzyl-4-t-butylphenol, reference compound]
- inducing sexual sterility or inhibiting oviposition (flies (family Muscidae) [1]): ineffective
- activity in the method of the invention (ineffective compounds) (flies (family Muscidae) [1]): ineffective

Compound: CC(C)(C)c1cc(C(C)(C)c2ccccc2)cc(C(C)(C)C)c1O [4-(α,α-dimethylbenzyl)-2,6-di-t-butylphenol, reference compound]
- activity in the method of the invention (ineffective compounds) (flies (family Muscidae) [1]): ineffective

Compound: COc1ccc(Cc2cc3c(cc2O)OCO3)cc1 [6-(4-methoxybenzyl)-3,4-methylenedioxyphenol, reference compound]
- activity in the method of the invention (ineffective compounds) (flies (family Muscidae) [1]): ineffective

Compound: CCCCOc1cc2c(cc1C(C)(C)c1ccccc1)OCO2 [AA, (α, 60 -Dimethylbenzyl)-3,4-methylenedioxy-6-n-butoxybenzene]
- inducing sexual sterility or inhibiting oviposition (flies (family Muscidae) [1]): ineffective

Compound: COc1ccc(C(C)c2cc(C(C)(C)C)c(O)c(C(C)(C)C)c2)cc1 (stereo not drawn) [Compound G, 2,6-Di-t-butyl-4-(α-methyl-4-methoxybenzyl)phenol]
- inducing sexual sterility or inhibiting oviposition (flies (family Muscidae) [1]): ineffective
- activity in the method of the invention (ineffective compounds) (flies (family Muscidae) [1]): ineffective

Compound: COc1ccc(Cc2cc(C(C)(C)C)c(O)c(C(C)(C)C)c2)cc1 [F, 2,6-Di-t-butyl-4-(4-methoxybenzyl)phenol]
- inducing sexual sterility or inhibiting oviposition (flies (family Muscidae) [1]): ineffective
- activity in the method of the invention (ineffective compounds) (flies (family Muscidae) [1]): ineffective
- GI-90 (concentration of growth inhibitor that would prevent and/or retard growth in 90% of the treated larvae) [2]: 0.042 ppm

Compound: CCOc1cc2c(cc1Cc1ccc(OC)cc1)OCO2 [M, (4-Methoxybenzyl)-3,4-methylenedioxy-6-ethoxybenzene]
- Mortality, parent generation (flies (family Muscidae) [3]; 0.01% in food): 0%
- Mortality, parent generation (flies (family Muscidae) [3]; 0.025% in food): 0%
- Mortality, parent generation (flies (family Muscidae) [3]; 0.05% in food): 0%
- Mortality, parent generation (flies (family Muscidae) [3]; 0.1% in food): 0%
- solubility in water (Solubility in water): low solubility in water
- revertant frequencies ([4]; 10-10,000 μg/plate in TA-100 and S-9): exceeded the mean control value plus two or three standard deviations
- mutagenic response relative to known mutagenic agents which revert this strain ([4]; TA-100 and S-9): extremely weak
- Inhibition of embryogenesis (screwworm flies): 99.8%
- Oviposition (screwworm flies): 55.0%
- Survival, Female (screwworm flies): 88.7%
- Survival, Male (screwworm flies): 35.0%
- Egg hatch (flies (family Muscidae) [5]; 0.01% in food): 19%
- Pupal development (flies (family Muscidae) [5]; 0.01% in food): 19%
- Egg hatch (flies (family Muscidae) [5]; 0.025% in food): 0%
- Pupal development (flies (family Muscidae) [5]; 0.025% in food): 0%
- Egg hatch (flies (family Muscidae) [5]; 0.05% in food): 0%
- Pupal development (flies (family Muscidae) [5]; 0.05% in food): 0%

Compound: CCCOc1cc2c(cc1Cc1ccc(OC)cc1)OCO2 [N, (4-Methoxybenzyl)-3,4-methylenedioxy-6n-propoxybenzene]
- Mortality, parent generation (flies (family Muscidae) [3]; 0.05% in food): 0%
- Mortality, parent generation (flies (family Muscidae) [3]; 0.1% in food): 0%
- Mortality, parent generation (flies (family Muscidae) [3]; 0.25% in food): 75%
- mutagenic activity ([4]; TA-100, TA-98, TA-1537, without or with metabolic activation): non-mutagenic
- Egg hatch (flies (family Muscidae) [5]; 0.05% in food): 33%
- Pupal development (flies (family Muscidae) [5]; 0.05% in food): 33%
- Egg hatch (flies (family Muscidae) [5]; 0.1% in food): 0%
- Pupal development (flies (family Muscidae) [5]; 0.1% in food): 0%

Compound: COc1ccc(Cc2cc3c(cc2OCCC(C)C)OCO3)cc1 [S, (4-Methoxybenzyl)-3,4-methylenedioxy-6-iso-pentoxybenzene]
- Mortality, parent generation (flies (family Muscidae) [3]; 0.05% in food): 0%
- Mortality, parent generation (flies (family Muscidae) [3]; 0.1% in food): 0%
- Mortality, parent generation (flies (family Muscidae) [3]; 0.25% in food): 0%
- Mortality, parent generation (flies (family Muscidae) [3]; 0.5% in food): 0%
- GI-90 (concentration of growth inhibitor that would prevent and/or retard growth in 90% of the treated larvae) [2]: 0.036 ppm
- Egg hatch (flies (family Muscidae) [5]; 0.05% in food): 55%
- Pupal development (flies (family Muscidae) [5]; 0.05% in food): 55%
- Egg hatch (flies (family Muscidae) [5]; 0.1% in food): 6%
- Pupal development (flies (family Muscidae) [5]; 0.1% in food): 6%
- Egg hatch (flies (family Muscidae) [5]; 0.25% in food): 0%
- Pupal development (flies (family Muscidae) [5]; 0.25% in food): 0%
- Egg hatch (flies (family Muscidae) [5]; 0.5% in food): 0%
- Pupal development (flies (family Muscidae) [5]; 0.5% in food): 0%

Compound: CCCOc1cc2c(cc1C(C)c1ccccc1)OCO2 (stereo not drawn) [U, (α-Methylbenzyl)-3,4-methylenedioxy-6-n-propoxybenzene]
- Mortality, parent generation (flies (family Muscidae) [3]; 0.025% in food): 0%
- Mortality, parent generation (flies (family Muscidae) [3]; 0.05% in food): 0%
- Mortality, parent generation (flies (family Muscidae) [3]; 0.1% in food): 0%
- Mortality, parent generation (flies (family Muscidae) [3]; 0.25% in food): 0%
- Mortality, parent generation (flies (family Muscidae) [3]; 0.5% in food): 0%
- Mortality, parent generation (flies (family Muscidae) [3]; 1.0% in food): 0%
- GI-90 (concentration of growth inhibitor that would prevent and/or retard growth in 90% of the treated larvae) [2]: 0.3 ppm
- Egg hatch (flies (family Muscidae) [5]; 0.025% in food): 42%
- Pupal development (flies (family Muscidae) [5]; 0.025% in food): 42%
- Egg hatch (flies (family Muscidae) [5]; 0.05% in food): 0%
- Pupal development (flies (family Muscidae) [5]; 0.05% in food): 0%
- Egg hatch (flies (family Muscidae) [5]; 0.1% in food): 0%
- Pupal development (flies (family Muscidae) [5]; 0.1% in food): 0%
- Egg hatch (flies (family Muscidae) [5]; 0.25% in food): 0%
- Pupal development (flies (family Muscidae) [5]; 0.25% in food): 0%
- Egg hatch (flies (family Muscidae) [5]; 0.5% in food): 0%
- Pupal development (flies (family Muscidae) [5]; 0.5% in food): 0%
- Egg hatch (flies (family Muscidae) [5]; 1.0% in food): 0%
- Pupal development (flies (family Muscidae) [5]; 1.0% in food): 0%

Compound: CCCCOc1cc2c(cc1C(C)c1ccccc1)OCO2 (stereo not drawn) [V, (α-Methylbenzyl)-3,4-methylenedioxy-6-n-butoxybenzene]
- Mortality, parent generation (flies (family Muscidae) [3]; 0.5% in food): 0%
- GI-90 (concentration of growth inhibitor that would prevent and/or retard growth in 90% of the treated larvae) [2]: 0.097 ppm
- Egg hatch (flies (family Muscidae) [5]; 0.5% in food): 34%
- Pupal development (flies (family Muscidae) [5]; 0.5% in food): 34%

Compound: (α,α-Dimethylbenzyl)-3,4-methylenedioxy-6-methoxybenzene
- inducing sexual sterility or inhibiting oviposition (flies (family Muscidae) [1]): ineffective

Compound: (α-Vinylbenzyl)-3,4-methylenedioxy-6-n-propoxybenzene [GG]
- inducing sexual sterility or inhibiting oviposition (flies (family Muscidae) [1]): ineffective

Source: patent publication US4357344A, “Polybutylbenzylphenols and benzyl-3,4-methylenedioxybenzenes in insect population control” (The United States of America as represented by the …, priority 1979, dated 1982)
